Reference: US9708325B2, “Sulfonimidoylpurinone compounds and derivatives for the treatment and prophylaxis of virus infection” (Hoffmann-La Roche Inc., priority 2015, dated 2017)

These molecules were tested against human TLR7 (Homo sapiens (Human), UniProt Q9NYK1) (assay: HEK-Blue-hTLR7 cells assay (SEAP reporter)). Conditions: 20 hrs, read-out: HEK-Blue-hTLR7 (EC50 (μM)).
Chain of human TLR7 (Q9NYK1 27-1049): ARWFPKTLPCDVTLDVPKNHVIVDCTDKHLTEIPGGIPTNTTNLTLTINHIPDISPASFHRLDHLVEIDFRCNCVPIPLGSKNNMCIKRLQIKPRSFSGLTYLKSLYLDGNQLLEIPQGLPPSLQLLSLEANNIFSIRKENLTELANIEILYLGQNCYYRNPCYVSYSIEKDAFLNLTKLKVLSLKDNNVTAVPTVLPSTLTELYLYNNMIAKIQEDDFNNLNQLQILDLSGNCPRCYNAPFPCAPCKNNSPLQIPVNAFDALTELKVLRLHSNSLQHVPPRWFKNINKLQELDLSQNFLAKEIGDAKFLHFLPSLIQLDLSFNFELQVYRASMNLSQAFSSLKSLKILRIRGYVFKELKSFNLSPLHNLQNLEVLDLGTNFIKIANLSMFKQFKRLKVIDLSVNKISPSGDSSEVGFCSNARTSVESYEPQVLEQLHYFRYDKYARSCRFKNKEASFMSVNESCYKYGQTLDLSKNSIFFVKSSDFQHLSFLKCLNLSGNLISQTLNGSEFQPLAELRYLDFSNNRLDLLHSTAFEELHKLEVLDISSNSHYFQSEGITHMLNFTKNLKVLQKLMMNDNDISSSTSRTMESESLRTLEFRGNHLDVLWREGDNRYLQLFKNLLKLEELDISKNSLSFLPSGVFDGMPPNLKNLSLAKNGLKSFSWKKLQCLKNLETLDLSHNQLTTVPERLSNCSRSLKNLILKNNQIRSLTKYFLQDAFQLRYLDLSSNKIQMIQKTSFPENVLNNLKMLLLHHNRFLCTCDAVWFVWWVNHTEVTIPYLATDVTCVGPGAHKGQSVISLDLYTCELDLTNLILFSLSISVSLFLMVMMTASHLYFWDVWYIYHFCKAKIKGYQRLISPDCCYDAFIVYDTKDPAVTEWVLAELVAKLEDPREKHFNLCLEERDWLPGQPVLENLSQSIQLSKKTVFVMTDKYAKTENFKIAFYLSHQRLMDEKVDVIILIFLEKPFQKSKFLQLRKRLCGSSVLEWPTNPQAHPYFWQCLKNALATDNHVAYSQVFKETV
Type: cell-based
Experimental: A stable HEK-Blue-hTLR7 cell line was purchased from InvivoGen (Cat.#: hkb-htlr7, San Diego, Calif., USA). These cells were designed for studying the stimulation of human TLR7 by monitoring the activation of NF-κB. […] Therefore the reporter expression was regulated by the NF-κB promoter upon stimulation of human TLR7 for 20 hrs. The cell culture supernatant SEAP reporter activity was determined using QUANTI-Blue™ kit (Cat.#: rep-qb1, Invivogen, San Diego, Ca, USA) at a wavelength of 640 nm, a detection medium that turns purple or blue in the presence of alkaline phosphatase.
HEK-Blue-hTLR7 cells were incubated at a density of 250,000˜450,000 cells/mL in a volume of 180 μL in a 96-well plate in Dulbecco's Modified Eagle's medium (DMEM) containing 4.5 g/L glucose, 50 U/mL penicillin, […], […], 2 mM L-glutamine, 10% (V/V) heat-inactivated fetal bovine serum for 24 hrs. Then the HEK-Blue-hTLR-7 cells were incubated with addition of 20 μL test compound in a serial dilution in the presence of final DMSO at 1% and perform incubation under 37° C. in a CO2 incubator for 20 hrs. Then 20 μL of the supernatant from each well was incubated with 180 μL Quanti-blue substrate solution at 37° C. for 2 hrs and the absorbance was read at 620˜655 nm using a spectrophotometer. The signalling pathway that TLR7 activation leads to downstream NF-κB activation has been widely accepted, and therefore similar reporter assay was also widely used for evaluating TLR7 agonist (Tsuneyasu Kaisho and Takashi Tanaka, Trends in Immunology, Volume 29, Issue 7, July 2008, […]; Hiroaki Hemmi et al, Nature Immunology 3, 196-200 (2002)).
With COc1ccc(Cn2c(=O)[nH]c3c(N)nc(S(C)(=N)=O)nc32)cc1 (stereo not shown) [Example 10, 6-Amino-9-[(4-methoxyphenyl)methyl]-2-(methylsulfonimidoyl)-7H-purin-8-one] the EC50 was 0.074 µM.
With CCCS(=N)(=O)c1nc(N)c2[nH]c(=O)n(Cc3ccccc3Cl)c2n1 (stereo not shown) [Example 15, 6-Amino-9-[(2-chlorophenyl)methyl]-2-(propylsulfonimidoyl)-7H-purin-8-one] the EC50 was 0.19 µM.
In the case of CCCS(=N)(=O)c1nc(N)c2[nH]c(=O)n(Cc3cccc(Cl)c3)c2n1 (stereo not shown) [Example 22, 6-Amino-9-[(3-chlorophenyl)methyl]-2-(propylsulfonimidoyl)-7H-purin-8-one], the EC50 is reported as 0.042 µM.
CCCS(=N)(=O)c1nc(N)c2[nH]c(=O)n(Cc3ccc(C(F)(F)F)cc3)c2n1 (stereo not shown) [Example 23, 6-Amino-2-(propylsulfonimidoyl)-9-[[4-(trifluoromethyl)phenyl]methyl]-7H-purin-8-one] gave an EC50 of 0.016 µM.
CCCS(=N)(=O)c1nc(N)c2[nH]c(=O)n(Cc3ccc(Br)cc3)c2n1 (stereo not shown) [Example 25, 6-Amino-9-[(4-bromophenyl)methyl]-2-(propylsulfonimidoyl)-7H-purin-8-one] gave an EC50 of 0.0096 µM.
Work on CCCS(=N)(=O)c1nc(N)c2[nH]c(=O)n(Cc3ccc(Cl)c(Cl)c3)c2n1 (stereo not shown) [Example 26, 6-Amino-9-[(3,4-dichlorophenyl)methyl]-2-(propylsulfonimidoyl)-7H-purin-8-one] yielded an EC50 of 0.021 µM.
CCCS(=N)(=O)c1nc(N)c2[nH]c(=O)n(Cc3ccc(Cl)c(C)c3)c2n1 (stereo not shown) [Example 28, 6-Amino-9-[(4-chloro-3-methyl-phenyl)methyl]-2-(propylsulfonimidoyl)-7H-purin-8-one] showed an EC50 of 0.021 µM.
CCCS(=N)(=O)c1nc(N)c2[nH]c(=O)n(Cc3ccc(C)cc3)c2n1 (stereo not shown) [Example 29, 6-Amino-2-(propylsulfonimidoyl)-9-(p-tolylmethyl)-7H-purin-8-one] gave an EC50 of 0.027 µM.
CCCS(=N)(=O)c1nc(N)c2[nH]c(=O)n(Cc3ccc(Cl)c(F)c3)c2n1 (stereo not shown) [Example 30, 6-Amino-9-[(4-chloro-3-fluorophenyl)methyl]-2-(propylsulfonimidoyl)-7H-purin-8-one] gave an EC50 of 0.018 µM.
CCCS(=N)(=O)c1nc(N)c2[nH]c(=O)n(Cc3ccc(C)c(Cl)c3)c2n1 (stereo not shown) [Example 36, 6-Amino-9-[(3-chloro-4-methyl-phenyl)methyl]-2-(propylsulfonimidoyl)-7H-purin-8-one] showed an EC50 of 0.022 µM.

Same assay, conditions: HEK-Blue-hTLR7 (EC50 (μM)), 20 hrs
Molecule COCCS(=N)(=O)c1nc(N)c2[nH]c(=O)n(Cc3ccccc3)c2n1 (single isomer, unassigned) [Example 3-B, 6-Amino-9-benzyl-2-(2-methoxyethylsulfonimidoyl)-7H-purin-8-one] has an EC50 of 0.55 µM.
For CCCS(=N)(=O)c1nc(N)c2[nH]c(=O)n(Cc3ccc(Cl)cc3)c2n1 (single isomer, unassigned) [Example 9-A, 6-Amino-9-[(4-chlorophenyl)methyl]-2-(propylsulfonimidoyl)-7H-purin-8-one], the EC50 was 0.014 µM.
For CCCS(=N)(=O)c1nc(N)c2[nH]c(=O)n(Cc3ccc(Cl)cc3)c2n1 (single isomer, unassigned) [Example 9-B, 6-Amino-9-[(4-chlorophenyl)methyl]-2-(propylsulfonimidoyl)-7H-purin-8-one], the EC50 was 0.011 µM.
CS(=N)(=O)c1nc(N)c2[nH]c(=O)n(Cc3cccnc3)c2n1 (single isomer, unassigned) [Example 16-A, 6-Amino-2-(methylsulfonimidoyl)-9-(3-pyridylmethyl)-7H-purin-8-one] gave an EC50 of 0.76 µM.
Molecule CS(=N)(=O)c1nc(N)c2[nH]c(=O)n(Cc3cccnc3)c2n1 (single isomer, unassigned) [Example 16-B, 6-Amino-2-(methylsulfonimidoyl)-9-(3-pyridylmethyl)-7H-purin-8-one] has an EC50 of 0.15 µM.
CCCS(=N)(=O)c1nc(N)c2[nH]c(=O)n(Cc3cccc(C#N)c3)c2n1 (stereo not shown) [Example 17, 3-[[6-Amino-8-oxo-2-(propylsulfonimidoyl)-7H-purin-9-yl]methyl]benzonitrile] was tested, and the EC50 was 0.068 µM.
